Data published in PubChem BioAssay AID248 (DTP/NCI, 2004).
Inconclusive results and toxic doses are left out. Rule as the data show it: active = T/C of 150% or more; inactive = T/C below 125%.

System: L1210 leukemia ip in BDF1 mice, survival T/C
Assay: NCI In Vivo Anticancer Drug Screen. Data for tumor model L1210 Leukemia (intraperitoneal) in B6D2F1 (BDF1) mice
Details: endpoint: mean survival time, higher = longer survival
Procedure, shortened: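 Survival endpoint. Drug-treated group vs vehicle group, expressed as T divided by C. Tumor passaged by transplantation.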

[1] = dose: 100.0 mg/kg/injection, schedule: Q01DX009 (ip), vehicle: Klucel (hydroxypropylcellulose) (HPC)
[2] = dose: 200.0 mg/kg/injection, schedule: Q01DX009 (ip), vehicle: Klucel (hydroxypropylcellulose) (HPC)
[3] = dose: 400.0 mg/kg/injection, schedule: Q01DX009 (ip), vehicle: Klucel (hydroxypropylcellulose) (HPC)
[4] = dose: 200.0 mg/kg/injection, schedule: Q01DX001 (ip), vehicle: saline
[5] = dose: 400.0 mg/kg/injection, schedule: Q01DX001 (ip), vehicle: saline
[6] = dose: 100.0 mg/kg/injection, schedule: Q04DX003 (ip), vehicle: Klucel (hydroxypropylcellulose) (HPC)
[7] = dose: 200.0 mg/kg/injection, schedule: Q04DX003 (ip), vehicle: Klucel (hydroxypropylcellulose) (HPC)
[8] = dose: 400.0 mg/kg/injection, schedule: Q04DX003 (ip), vehicle: Klucel (hydroxypropylcellulose) (HPC)
[9] = dose: 75.0 mg/kg/injection, schedule: Q01DX001 (ip), vehicle: other
[10] = dose: 50.0 mg/kg/injection, schedule: Q01DX009 (ip), vehicle: Klucel (hydroxypropylcellulose) (HPC)

Measured: T/C

O=C1C=Cc2ccccc2C1=O
inactive: dose: 0.78 mg/kg/injection, schedule: Q01DX001 (ip), vehicle: Klucel (hydroxypropylcellulose) (HPC) 103 % of control | dose: 1.56 mg/kg/injection, schedule: Q01DX001 (ip), vehicle: Klucel (hydroxypropylcellulose) (HPC) 95 % of control | dose: 3.13 mg/kg/injection, schedule: Q01DX001 (ip), vehicle: Klucel (hydroxypropylcellulose) (HPC) 88 % of control

O=C(Nc1ccc(Cl)c([N+](=O)[O-])c1)N(CC(O)c1ccccc1)C1CCCCC1 (configuration not stated)
inactive: [1] 93 % of control | [2] 93 % of control | [3] 87 % of control

c1ccc(-c2oc(-c3ccccc3)c3ccccc23)cc1
inactive: dose: 6.25 mg/kg/injection, schedule: Q01DX009 (ip), vehicle: Klucel (hydroxypropylcellulose) (HPC) 101 % of control | dose: 6.25 mg/kg/injection, schedule: Q04DX003 (ip), vehicle: Klucel (hydroxypropylcellulose) (HPC) 96 % of control | dose: 12.5 mg/kg/injection, schedule: Q01DX009 (ip), vehicle: Klucel (hydroxypropylcellulose) (HPC) 102 % of control | dose: 12.5 mg/kg/injection, schedule: Q04DX003 (ip), vehicle: Klucel (hydroxypropylcellulose) (HPC) 93 % of control | dose: 25.0 mg/kg/injection, schedule: Q01DX009 (ip), vehicle: Klucel (hydroxypropylcellulose) (HPC) 96 % of control | dose: 25.0 mg/kg/injection, schedule: Q04DX003 (ip), vehicle: Klucel (hydroxypropylcellulose) (HPC) 96 % of control

COC(=O)c1ccccc1NC(=O)c1ccc(C(=O)Nc2ccccc2C(=O)OC)cc1
inactive: [1] 107 % of control | [2] 92 % of control | [3] 92 % of control

CC1(C)CS(=O)(=O)CC(C)(C)C(=O)C1=O
inactive: dose: 100.0 mg/kg/injection, schedule: Q01DX001 (ip), vehicle: Klucel (hydroxypropylcellulose) (HPC) 108 % of control

CCCCCCCCCCCCCCCCCCC[As](=O)(O)CCCCCCCCCCCCCCCCCCC
inactive: dose: 50.0 mg/kg/injection, schedule: Q01DX001 (ip), vehicle: saline 97 % of control | dose: 100.0 mg/kg/injection, schedule: Q01DX001 (ip), vehicle: saline 89 % of control | [4] 95 % of control | [5] 91 % of control

CC(=O)OC1CCC2(C)C3CCC4(C)C(OC(=O)c5ccccc5)CCC4C3C3C(=O)OC32C1 (configuration not stated)
inactive: [6] 95 % of control | [7] 95 % of control | [8] 95 % of control

O=[N+]([O-])c1ccc(-[n+]2ccccc2)c([N+](=O)[O-])c1
inactive: dose: 18.75 mg/kg/injection, schedule: Q01DX009 (ip), vehicle: saline 105 % of control | dose: 25.0 mg/kg/injection, schedule: Q01DX009 (ip), vehicle: saline 105 % of control | dose: 37.5 mg/kg/injection, schedule: Q01DX009 (ip), vehicle: saline 103 % of control | dose: 50.0 mg/kg/injection, schedule: Q01DX009 (ip), vehicle: saline 103 % of control | dose: 75.0 mg/kg/injection, schedule: Q01DX009 (ip), vehicle: saline 102 % of control | dose: 100.0 mg/kg/injection, schedule: Q01DX009 (ip), vehicle: saline 102 % of control | dose: 150.0 mg/kg/injection, schedule: Q01DX009 (ip), vehicle: saline 112 % of control

CCC(=O)NC
inactive: dose: 100.0 mg/kg/injection, schedule: Q01DX001 (ip), vehicle: acetone 100 % of control | dose: 100.0 mg/kg/injection, schedule: Q01DX009 (ip), vehicle: acetone 101 % of control | dose: 200.0 mg/kg/injection, schedule: Q01DX001 (ip), vehicle: acetone 100 % of control | dose: 200.0 mg/kg/injection, schedule: Q01DX009 (ip), vehicle: acetone 97 % of control | dose: 400.0 mg/kg/injection, schedule: Q01DX001 (ip), vehicle: acetone 100 % of control | dose: 400.0 mg/kg/injection, schedule: Q01DX009 (ip), vehicle: acetone 100 % of control | dose: 555.0 mg/kg/injection, schedule: Q01DX015 (ip), vehicle: water 102 % of control | dose: 833.0 mg/kg/injection, schedule: Q01DX015 (ip), vehicle: water 115 % of control | dose: 1000.0 mg/kg/injection, schedule: Q01DX001 (ip), vehicle: water 98 % of control | dose: 1500.0 mg/kg/injection, schedule: Q01DX001 (ip), vehicle: water 104 % of control | dose: 2000.0 mg/kg/injection, schedule: Q01DX001 (ip), vehicle: water 113 % of control

O=S1(=O)CCCCC1Cl (configuration not stated)
inactive: dose: 38.0 mg/kg/injection, schedule: Q01DX009 (ip), vehicle: other 96 % of control | [9] 100 % of control | dose: 75.0 mg/kg/injection, schedule: Q01DX009 (ip), vehicle: other 89 % of control | dose: 75.0 mg/kg/injection, schedule: Q04DX003 (ip), vehicle: other 98 % of control | dose: 150.0 mg/kg/injection, schedule: Q01DX001 (ip), vehicle: other 100 % of control | dose: 150.0 mg/kg/injection, schedule: Q01DX009 (ip), vehicle: other 91 % of control | dose: 150.0 mg/kg/injection, schedule: Q04DX003 (ip), vehicle: other 98 % of control | dose: 300.0 mg/kg/injection, schedule: Q01DX001 (ip), vehicle: other 103 % of control

CN(CCCl)C(=O)Nc1ccc(Cl)cc1
inactive: [6] 94 % of control | [7] 94 % of control | [8] 90 % of control

O=S1(=O)CCC(N(/N=C/c2c[nH]c3ccccc23)c2ccccc2)C1 (configuration not stated)
inactive: dose: 100.0 mg/kg/injection, schedule: Q04DX002 (ip), vehicle: Klucel (hydroxypropylcellulose) (HPC) 103 % of control | dose: 200.0 mg/kg/injection, schedule: Q04DX002 (ip), vehicle: Klucel (hydroxypropylcellulose) (HPC) 110 % of control | dose: 400.0 mg/kg/injection, schedule: Q04DX002 (ip), vehicle: Klucel (hydroxypropylcellulose) (HPC) 100 % of control

CCCCCCCCC(=O)[O][Hg][c]1ccccc1
inactive: [9] 106 % of control

Nc1cncnc1N
inactive: dose: 30.0 mg/kg/injection, schedule: Q01DX Z (ip), vehicle: saline 101 % of control | dose: 60.0 mg/kg/injection, schedule: Q01DX Z (ip), vehicle: saline 103 % of control | dose: 120.0 mg/kg/injection, schedule: Q01DX Z (ip), vehicle: saline 100 % of control | dose: 240.0 mg/kg/injection, schedule: Q01DX Z (ip), vehicle: saline 97 % of control

CC(C)=CC(=O)NC(=O)NS(=O)(=O)c1ccc(Cl)cc1
inactive: [10] 100 % of control | [1] 107 % of control | [6] 105 % of control | [2] 98 % of control | [7] 102 % of control | [8] 106 % of control

Cc1ccc(N=Nc2ccc([N+](=O)[O-])cc2)c([N+](=O)[O-])c1
inactive: dose: 100.0 mg/kg/injection, schedule: Q01DX001 (ip), vehicle: carboxymethylcellulose (CMC) 96 % of control | dose: 200.0 mg/kg/injection, schedule: Q01DX001 (ip), vehicle: carboxymethylcellulose (CMC) 93 % of control | dose: 400.0 mg/kg/injection, schedule: Q01DX001 (ip), vehicle: carboxymethylcellulose (CMC) 96 % of control

COc1ccc(C2ON2C2CCCCC2)cc1OC (configuration not stated)
inactive: [4] 106 % of control | [5] 100 % of control

Cc1c2ccccc2cc2c1ccc1cccc(F)c12
inactive: dose: 12.5 mg/kg/injection, schedule: Q01DX009 (ip), vehicle: saline with Tween-80 107 % of control | dose: 25.0 mg/kg/injection, schedule: Q01DX009 (ip), vehicle: saline with Tween-80 104 % of control | dose: 50.0 mg/kg/injection, schedule: Q01DX009 (ip), vehicle: saline with Tween-80 96 % of control

O/N=C/c1c(O)cccc1Cl
inactive: dose: 75.0 mg/kg/injection, schedule: Q01DX001 (ip), vehicle: acetone 102 % of control | dose: 150.0 mg/kg/injection, schedule: Q01DX001 (ip), vehicle: acetone 91 % of control

CSc1ccc(OC(=O)Nc2ccc(C)cc2[N+](=O)[O-])cc1
inactive: [10] 90 % of control | [1] 90 % of control | [6] 97 % of control | [2] 100 % of control | [7] 99 % of control | [8] 97 % of control
